Data set [1] deals with T1, CTX-M-15 (Escherichia coli, UniProt Q9EXV5). Kind of data set: Enzyme inhibition kinetics (acylation/deacylation, competition with nitrocefin). The note with it: for K′: dissociation constant of the Henri-Michaelis complex; for k +2 x 10^−2: first-order acylation constant, values x 10^−2.
Description: (§1) The parameters k +2, k +3 and K′ are the first-order acylation and deacylation constants, and the dissociation constant of the Henri-Michaelis complex, respectively.
(§2) where, v o, v t and v ss are the rates of utilization of the reporter substrate at times 0 and t, and after the steady-state has been established, respectively.
(§3) The individual parameters, k +2, k +3 and K′, were derived from the dependence of k i upon inhibitor concentration, [C], on the basis of the following equation: [drawing 10]
(§4) When the concentration of inhibitor [C] is well below K′, k i varies linearly the above equations is simplified as: [drawing 11]
(§5) The k +2/K′ value is then obtained from the slope of the line, whereas k +3 is given by the intercept at [C] = 0. Conversely, if [C] is much larger than K′ (K m+[S])/K m, then k i = k +2+k +3, and is independent of [C]
Data set [2] concerns E. coli DH5α transformed with recombinant bla CTX-M-15 (pQE-2-CTX-M-15). Kind of data set: MIC by micro-dilution, β-lactams alone or with inhibitors. It counts as cell-based. The note with it: for fold lowering of MIC of cefotaxime in combination with inhibitor: DH5α transformed with bla CTX-M-15; for MIC: Escherichia coli, read-out: MIC DH5α(pQE-2-CTX-M-15), E. coli DH5α with bla CTX-M-15 cloned from E. cloacae EC-15; for MIC / MIC DH5α(pQE-2-CTX-M-15): in combinations clavulanic acid, sulbactam, tazobactam at 4 µg/ml, ZINC03787097 at 20 µg/ml; for MIC DH5α(pQE-2-CTX-M-15): E. coli DH5α with bla CTX-M-15 cloned from E. cloacae EC-15. The method, then: E. coli DH5α and E. coli BL21 (DE3) were used for cloning and protein expression experiments, respectively. MICs were determined on E. coli DH5α transformed with cloned CTX-M-15 from Enterobacter cloacae clinical strain EC-15.
The MICs for various antibiotics alone or in combination with various inhibitors (clavulanic acid, sulbactam, tazobactam and ZINC03787097) were determined by micro-dilution method and the results were interpreted according to Clinical Laboratory Standards Institute (CLSI) guidelines. Briefly, E. coli DH5α cells transformed with CTX-M-15 was treated with increasing concentrations of the antibiotics ranging from 0.5 to 2000 µg/ml in a series of two fold dilutions. The inhibitors clavulanic acid, sulbactam and tazobactam were used at a fixed concentration of 4 µg/ml, while ZINC03787097 was used at 20 µg/ml.
Background: In broth dilution the organism is exposed to a series of concentrations in liquid medium.

For data set [3], the target named is T1, CTX-M-15. Kind of data set: IC50 determination, nitrocefin hydrolysis after 5 min pre-incubation. It counts as biochemical, Enterobacter cloacae. On the set-up: His tag (inferred from the pQE-2 vector and Ni-NTA purification); made in house; host or cells: E. coli BL21 (DE3). As to conditions: IC50, 5 min pre-incubation at 30°C; 100 µM nitrocefin. The method, then: The 50% inhibitory concentration (IC50) was determined as the concentration of the inhibitor that inhibited hydrolytic activity of the enzyme by 50%.

In data set [4] the target is T1, CTX-M-15. As to conditions: for K m or K i: K m for good substrates, for poor substrates (ceftazidime, cefepime, aztreonam) determined as K i against 100 µM nitrocefin; for k cat: 50 mM phosphate buffer pH 7.0, 30°C. The method, then: The inhibitors used were Clavulanic acid, Sulabctam, Tazobactam and ZINC03787097.
Hydrolysis of β-lactam antibiotics was detected by monitoring the variation in the absorbance due to cleavage of β-lactam ring in 50 mM phosphate buffer, pH 7.0 [28]. All the measurements were taken in triplicate on Shimadzu UV-VIS spectrophotometer (UV-1800). The reaction was performed in a total volume of 500 µl at 30°C. For dilution of the enzyme and to prevent denaturation, BSA was added to a final concentration of 20 µg/ml.

Data set [5] relates to E. coli DH5α (Null Plasmid). Kind of data set: MIC by micro-dilution, null plasmid control strain. It counts as cell-based. The note with it: Escherichia coli, read-out: MIC DH5α(Null Plasmid).
The target of data set [6] is T1, CTX-M-15. It counts as biochemical, Enterobacter cloacae. More on the design: His tag (inferred from the pQE-2 vector and Ni-NTA purification); made in house; host or cells: E. coli BL21 (DE3). The note with it: 0.00 µM ZINC03787097; 0.50 nM CTX-M-15.
In data set [7] the test system is O=C(Cc1cccs1)N[C@@H]1C(=O)N2C(C(=O)O)=C(/C=C/c3ccc([N+](=O)[O-])cc3[N+](=O)[O-])CS[C@H]12. Kind of data set: purified protein, by the assay type. As to conditions: other: 50 mM phosphate buffer pH 7.0, 30°C.
Data set [8] deals with CO/N=C(\C(=O)N[C@@H]1C(=O)N2C(C(=O)O)=C(CSc3nc(=O)c(=O)[nH]n3C)CS[C@H]12)c1csc(N)n1. Kind of data set: purified protein, by the assay type. As to conditions: other: 50 mM phosphate buffer pH 7.0, 30°C.
For data set [9], the system named is CC1(C)S[C@@H]2[C@H](NC(=O)[C@H](N)c3ccccc3)C(=O)N2[C@H]1C(=O)O. Kind of data set: purified protein, by the assay type. The note with it: other: 50 mM phosphate buffer pH 7.0, 30°C.
For data set [10], the system named is CO/N=C(\C(=O)N[C@@H]1C(=O)N2C(C(=O)O)=C(COC(N)=O)CS[C@H]12)c1ccco1. Kind of data set: purified protein, by the assay type. The note with it: other: 50 mM phosphate buffer pH 7.0, 30°C.
Data set [11] has as its system CC(C)(O/N=C(\C(=O)N[C@@H]1C(=O)N2C(C(=O)[O-])=C(C[n+]3ccccc3)CS[C@H]12)c1csc(N)n1)C(=O)O. Kind of data set: purified protein, by the assay type. As to conditions: other: 50 mM phosphate buffer pH 7.0, 30°C.
The test system of data set [12] is CO/N=C(\C(=O)N[C@@H]1C(=O)N2C(C(=O)O)=C(COC(C)=O)CS[C@H]12)c1csc(N)n1. Kind of data set: purified protein, by the assay type. The note with it: other: 50 mM phosphate buffer pH 7.0, 30°C.
Data set [13] relates to C[C@]1(Cn2ccnn2)[C@H](C(=O)O)N2C(=O)C[C@H]2S1(=O)=O. Kind of data set: purified protein, by the assay type. The note with it: other: slope of k i versus inhibitor concentration.
Description: as §1, §2, §3, §4, §5
The subject of data set [14] is CCN1CCN(C(=O)N[C@@H](C(=O)N[C@@H]2C(=O)N3[C@@H]2SC(C)(C)[C@@H]3C(=O)O)c2ccccc2)C(=O)C1=O. Kind of data set: purified protein, by the assay type. As to conditions: other: 50 mM phosphate buffer pH 7.0, 30°C.
[15] abbreviates: K i calculated as K i = k +3 K/k +2, calculated value.
Setting [16] is: K i, determined at steady-state, competition with 100 µM nitrocefin.
Setting [17] is: in combinations clavulanic acid, sulbactam, tazobactam at 4 µg/ml, ZINC03787097 at 20 µg/ml.

Values after ≈ are worked out from the molar mass of the structure shown. Where two headings read alike, the source gives them in different places.

As usually defined, the Ki is a dissociation constant, usually derived from enzyme kinetics or from competition with a known ligand. Usually IC50 stands for the concentration at which inhibition is half-maximal. As to `O=C(O)[C@H]1/C(=C/CO)O[C@@H]2CC(=O)N21` [Clavulanic acid], the Ki at CTX-M-15 [1] (setting [15]) was 106 nM. This compound displayed an inhibition constant (Ki) on CTX-M-15 [1] (setting [16]) of 99 nM. Moreover, at CTX-M-15 [1], the “K′” value is 0.72 µM and the “k +2 x 10^−2” value was found to be 1.3 s^−1. In addition, the “fold lowering of MIC of cefotaxime in combination with inhibitor” value (from here on “fold lowering of MIC … with inhibitor”) in data set [2] is on record as 16 fold. For the same compound, the IC50 against CTX-M-15 [3] amounted to 14 nM.

Broadly, the MIC is the least concentration at which growth counts as inhibited. Take `CC1(C)S[C@@H]2[C@H](NC(=O)[C@H](N)c3ccccc3)C(=O)N2[C@H]1C(=O)O` [Ampicillin]: the “K m or K i” value on CTX-M-15 [4] stood at 15 ± 2 µM. The minimum inhibitory concentration (MIC) in [5] (setting [17]) came out at 2 µg/mL.

As for `O=C(Cc1cccs1)N[C@@H]1C(=O)N2C(C(=O)O)=C(/C=C/c3ccc([N+](=O)[O-])cc3[N+](=O)[O-])CS[C@H]12` [Nitrocefin], at CTX-M-15 [4], the k cat amounted to 582 s⁻¹ and the “K m or K i” value worked out at 35 ± 4 µM. Besides, at CTX-M-15 [6], the “K m for nitrocefin hydrolysis” value is 42 µM.

For the compound `CO[C@@]1(NC(=O)Cc2cccs2)C(=O)N2C(C(=O)O)=C(COC(N)=O)CS[C@@H]21` [Cefoxitin], the results for the MIC in data set [2] and in [5] (setting [17]) were 16 µg/mL and 2 µg/mL, respectively.

Take `CO/N=C(\C(=O)N[C@@H]1C(=O)N2C(C(=O)[O-])=C(C[N+]3(C)CCCC3)CS[C@H]12)c1csc(N)n1` [Cefepime]: the “MIC DH5α(pQE-2-CTX-M-15)” value in data set [2] (listed as Cefepime (IV)) turned out to be 128 µg/ml. Also, the minimal inhibitory concentration (MIC) turned out to be 125 µg/mL in [2] and 0.25 µg/mL (≈ 0.52 µM) in data set [5].

Turning to `CO/N=C(\C(=O)N[C@@H]1C(=O)N2C(C(=O)O)=C(CSc3nc(=O)c(=O)[nH]n3C)CS[C@H]12)c1csc(N)n1` [Ceftriaxone], the “K m or K i” value on CTX-M-15 [4] worked out at 33 ± 2 µM. The minimum inhibitory concentration (MIC) in data set [5] (setting [17]) is 0.06 µg/mL.

For the compound `CC(C)(O/N=C(\C(=O)N[C@@H]1C(=O)N2C(C(=O)[O-])=C(C[n+]3ccccc3)CS[C@H]12)c1csc(N)n1)C(=O)O` [Ceftazidime], the MIC was found to be 4 µg/mL in data set [2] and 0.25 µg/mL in data set [5] (setting [17]). In addition, the k cat on CTX-M-15 [4] amounted to 1.51 s⁻¹. Also, the “K m or K i” value on CTX-M-15 [4] came to 1209 µM; at CTX-M-15 [4] (listed as Ceftazidime (III)), 1209 ± 91 µM.

Regarding `C[C@]1(Cn2ccnn2)[C@H](C(=O)O)N2C(=O)C[C@H]2S1(=O)=O` [Tazobactam], on CTX-M-15 [1] (setting [15]), the Ki was 13 nM. The compound further came in with a Ki at CTX-M-15 [1] (setting [16]) of 17 nM. Moreover, on CTX-M-15 [1], the “K′” value is on record as 0.03 µM and the “k +2 x 10^−2” value turned out to be 1.3 s^−1. Also, the “fold lowering of MIC … with inhibitor” value in data set [2] amounted to 8 fold. Also, the “fold reduction of MICs of β-lactam antibiotics” value in data set [2] (inhibitor in combination with β-lactam antibiotics) is given as 2–16 folds. For the same compound, the IC50 against CTX-M-15 [3] was 1 nM.

In the case of `C[C@H]1[C@H](NC(=O)/C(=N\OC(C)(C)C(=O)O)c2csc(N)n2)C(=O)N1S(=O)(=O)O` [Aztreonam], the values for the MIC in [2] and in data set [5] were 16 µg/mL and 0.25 µg/mL (≈ 0.574 µM), respectively.

With `CO/N=C(\C(=O)N[C@@H]1C(=O)N2C(C(=O)O)=C(COC(N)=O)CS[C@H]12)c1ccco1` [Cefuroxime], the “K m or K i” value at CTX-M-15 [4] came out at 29 ± 2 µM. In addition, in data set [5] (setting [17]), the minimum inhibitory concentration (MIC) was 1 µg/mL.

Broadly, the kcat is the maximal rate divided by the concentration of active sites. As usually defined, the kcat/Km is the second-order rate constant that governs catalysis at low substrate concentration. Regarding CTX-M-15 (Escherichia coli), the kcat in data set [7] came out at 582 s⁻¹; in data set [8], 82 ± 5 s⁻¹; in data set [9], 57 ± 3 s⁻¹; in data set [10], 87 ± 2 s⁻¹; in data set [11] it was 1.51 ± 0.03 s⁻¹; in [12], 222 ± 7 s⁻¹. Besides, in data set [14], the kcat was determined as 58 ± 4 s⁻¹. Also, the kcat/Km in data set [7] stood at 1.66e+07 M⁻¹ s⁻¹; in data set [8], 2.5e+06 M⁻¹ s⁻¹; in data set [9], 3.8e+06 M⁻¹ s⁻¹; in data set [10], 3e+06 M⁻¹ s⁻¹; in data set [11], 1200 M⁻¹ s⁻¹; in data set [12] it was 3.7e+06 M⁻¹ s⁻¹. Further, the kcat/Km worked out at 0.44 µM⁻¹ s⁻¹ in data set [13] and 1.8e+06 M⁻¹ s⁻¹ in [14].

Regarding `Cc1nnc(SCC2=C(C(=O)O)N3C(=O)[C@@H](NC(=O)Cn4cnnn4)[C@H]3SC2)s1` [Cefazolin], the MIC in [5] stood at 2 µg/mL (≈ 4.4 µM).

On to `CCN1CCN(C(=O)N[C@@H](C(=O)N[C@@H]2C(=O)N3[C@@H]2SC(C)(C)[C@@H]3C(=O)O)c2ccccc2)C(=O)C1=O` [Piperacillin], for which the “K m or K i” value on CTX-M-15 [4] came to 32 ± 5 µM. Also, the minimal inhibitory concentration (MIC) in [5] (setting [17]) was 1 µg/mL.

For `CC1(C)[C@H](C(=O)O)N2C(=O)C[C@H]2S1(=O)=O` [Sulbactam], on CTX-M-15 [1] (setting [15]), the inhibition constant (Ki) was 131 nM. In addition, affinity at CTX-M-15 [1] (setting [16]) was put at a Ki of 62 nM. At CTX-M-15 [1], the “K′” value is on record as 0.55 µM and the “k +2 x 10^−2” value stood at 1.6 s^−1. Further, in [2], the “fold lowering of MIC … with inhibitor” value is listed as 2 fold. On CTX-M-15 [3], this compound showed an IC50 of 212 nM.

For the compound `CO/N=C(\C(=O)N[C@@H]1C(=O)N2C(C(=O)O)=C(COC(C)=O)CS[C@H]12)c1csc(N)n1` [Cefotaxime], the “MIC DH5α(pQE-2-CTX-M-15)” value in data set [2] (listed as Cefotaxime (III)) amounted to 512 µg/ml. For the same compound, the minimum inhibitory concentration (MIC) in data set [2] was 500 to 1000 µg/mL; in data set [5] (setting [17]), 0.25 µg/mL. The “K m or K i” value on CTX-M-15 [4] is 60 ± 3 µM.

The values above are taken from paper PMC3578935, “Biochemical Characterization of CTX-M-15 from Enterobacter cloacae and Designing a Novel Non-β-Lactam-β-Lactamase Inhibitor” (PLoS ONE, 2013).
